{"source": "patent US9416149B2", "about": "“Methods to modulate Rac1 import and to treat pulmonary fibrosis” (University of Iowa Research Foundation, priority 2013, dated 2016)", "key": {"[1]": {"test_system": "Macrophages", "test": "H2O2 generation in macrophages exposed to chrysotile asbestos (pHPA assay)", "type": "cell-based", "experimental": "(§1) Extracellular H2O2 production was determined fluorometrically, as previously described (He, C., et al., Mitochondrial Cu,Zn-Superoxide Dismutase Mediates Pulmonary Fibrosis by Augmenting H2O2 Generation. J Biol Chem, 2011. 286(17): p. 15597-607). Briefly, cells were incubated in phenol-red free Hanks' balanced salt solution supplemented with 6.5 mM glucose, 1 mM HEPES, 6 mM sodium bicarbonate, 1.6 mM pHPA, and 0.95 μg/ml HRP. Fluorescence of the pHPA-dimer was measured using a spectrofluorometer at excitation of 320 nm and emission of 400 nm. Mitochondrial H2O2 was measured by resuspending mitochondria in phenol-red free Hanks' balanced salt solution supplemented with 6.5 mM glucose, 1 mM HEPES, 6 mM sodium bicarbonate, 1.6 mM pHPA, 0.95 μg/ml HRP and 5 mM α-ketoglutarate."}, "[2]": {"test_system": "Macrophages", "test": "Mitochondrial H2O2 generation in macrophages exposed to chrysotile asbestos (pHPA assay)", "type": "cell-based", "details": "Example 1, FIG. 2; DGBP 10 mM; chrysotile asbestos 10 μg/cm^2; isolated mitochondria", "experimental": "as §1\n(§2) Mitochondria were isolated as previously described (He, C., et al., Mitochondrial Cu,Zn-Superoxide Dismutase Mediates Pulmonary Fibrosis by Augmenting H2O2 Generation. J Biol Chem, 2011. 286(17): p. 15597-607)."}, "[3]": {"test_system": "Rac1", "test": "Mitochondrial Rac1 import, immunoblot for Flag-Rac1 in isolated mitochondria of transfected macrophages", "type": "cell-based", "details": "for localization of Rac1 to the mitochondria: Example 2, FIG. 8D", "experimental": "as §2\n(§3) Whole cells lysates and sub-cellular fractions were separated by SDS-PAGE and transferred to PVDF membranes. Immunoblot analyses on the membranes were performed with the designated antibodies followed by the appropriate secondary antibody cross-linked to HRP.\n(§4) To determine if DGBP inhibits Rac1 import into mitochondria, we exposed macrophages to vehicle (water) or DGBP in cells transfected with an empty control or a wild-type Rac1 expression vector (pRK-Flag-Rac1). […] To confirm that DGBP reduced Rac1 import secondary to inhibiting geranylgeranylation, an immunoblot analysis for Rap 1A, which only recognizes non-geranylgeranylated proteins and is indicative of reduced GGPP levels was performed (Weivoda, M. M. and R. J. Hohl, The effects of direct inhibition of geranylgeranyl pyrophosphate synthase on osteoblast differentiation. J Cell Biochem, 2011. 112(6): p. 1506-13, Wasko, B. M., A. Dudakovic, and R. J. Hohl, Bisphosphonates induce autophagy by depleting geranylgeranyl diphosphate. J Pharmacol Exp Ther, 2011. 337(2): p. 540-6). […] To examine whether DGBP altered H2O2 levels, cells were treated similarly as above described with DGBP (10 mM)."}, "[4]": {"test_system": "Rap1A", "test": "Geranylgeranylation, immunoblot for non-geranylgeranylated Rap1A in macrophages", "type": "cell-based", "experimental": "as §3, §4"}, "[5]": {"test_system": "chrysotile-induced pulmonary fibrosis", "test": "Chrysotile asbestos-induced pulmonary fibrosis in mice, DGBP via subcutaneous osmotic pump", "type": "in vivo", "experimental": "To determine the biological relevance of DGBP on oxidative stress in vivo, WT mice were exposed to asbestos (100 μg i.t.). The mice were treated with vehicle or DGBP via administration utilizing a subcutaneous osmotic pump. After 21 days, the mice were euthanized, and lung oxidative stress was determined by GSH assay.\n(§5) Wild-type C57Bl/6 mice were from Jackson Laboratories (Bar Habor, Me.). The University of Iowa Institutional Animal Care and Use Committee approved all protocols. After equilibration, osmotic pumps (Alzet, Cupertino, Calif.) containing either vehicle (water) or DGBP (0.2 mg/kg/day) were implanted subcutaneously, as describe previously (Erickson, J. R., et al., A dynamic pathway for calcium-independent activation of CaMKII by methionine oxidation. Cell, 2008. 133(3): p. 462-74). Bleomycin (2.0 U/kg) or chrysotile ([…]) was administered intratracheally. Mice were euthanized and fibrosis determined as previously described (Osborn-Heaford, H. L., et al., Mitochondrial Rac1 GTPase Import and Electron Transfer from Cytochrome c Are Required for Pulmonary Fibrosis. The Journal of biological chemistry, 2012. 287(5): p. 3301-12, He, C., et al., Accelerated Development of Pulmonary Fibrosis via Cu,Zn-superoxide Dismutase-induced Alternative Activation of Macrophages. J Biol Chem, 2013. 288(28): p. 20745-57).\nas §2\n(§6) Lung tissue was dried to stable weight and acid hydrolyzed with 6N HCl for 24 h at 120° C. Hydroxyproline concentration normalized, to dry weight of the lung, was determined as described previously (Osborn-Heaford, H. L., et al., Mitochondrial Rac1 GTPase Import and Electron Transfer from Cytochrome c Are Required for Pulmonary Fibrosis. The Journal of biological chemistry, 2012. 287(5): p. 3301-12).\n(§7) Reduced and oxidized glutathione in the lung were determined as described previously (He, C., et al., Mitochondrial Cu,Zn-Superoxide Dismutase Mediates Pulmonary Fibrosis by Augmenting H2O2 Generation. J Biol Chem, 2011. 286(17): p. 15597-607).\nas §3\nTo determine if geranylgeranylation of Rac1 is associated with other forms of pulmonary fibrosis, the role of DGBP in modulating chrysotile-induced pulmonary fibrosis was tested. WT mice with subcutaneous osmotic pumps delivering vehicle or DGBP were exposed to chrysotile as previously described (He, C., et al., Mitochondrial Cu,Zn-Superoxide Dismutase Mediates Pulmonary Fibrosis by Augmenting H2O2 Generation. J Biol Chem, 2011. 286(17): p. 15597-607, Osborn-Heaford, H. L., et al., Mitochondrial Rac1 GTPase Import and Electron Transfer from Cytochrome c Are Required for Pulmonary Fibrosis. The Journal of biological chemistry, 2012. 287(5): p. 3301-12, Murthy, S., et al., Rac1-mediated Mitochondrial H2O2 Generation Regulates MMP-9 Gene Expression in Macrophages via Inhibition of SP-1 and AP-1. J Biol Chem, 2010. 285(32): p. 25062-73). It was first determined if DGBP altered mitochondrial Rac1 localization in BAL cells. Alveolar macrophages were obtained by BAL 21 days after chrysotile exposure. […] Lung oxidative stress was also evaluated. […]"}, "[6]": {"test_system": "bleomycin-induced pulmonary fibrosis", "test": "Bleomycin-induced pulmonary fibrosis in mice, DGBP via subcutaneous osmotic pump", "type": "in vivo", "experimental": "as §5, §2, §6, §7, §3\nActive TGF-β in BAL fluid was measured by ELISA (R&D, Minneapolis, Minn.), according to manufacturer's instructions.\nBecause bleomycin increased mitochondrial oxidative stress in alveolar macrophages in vivo, it was next evaluated if bleomycin modulates Rac1 mitochondrial import. Osmotic pumps containing either vehicle (water) or DGBP were implanted subcutaneously in WT mice. DGBP was delivered at a dose of 0.2 mg/kg/day. Mice were exposed to saline or bleomycin the following day, and BAL was performed 21 days later to obtain alveolar macrophages. Mitochondria were isolated to investigate Rac1 localization."}, "[7]": {"test_system": "bleomycin-induced pulmonary fibrosis", "test": "Progression of bleomycin-induced pulmonary fibrosis in mice, osmotic pumps installed seven days after bleomycin", "type": "in vivo", "experimental": "as §5\nLung tissue was dried to stable weight and acid hydrolyzed with 6N HCl for 24 h at 120° C. […]"}, "[8]": {"test_system": "THP-1 cells", "test": "Mitochondrial H2O2 generation in THP-1 cells exposed to chrysotile (pHPA assay)", "type": "cell-based", "details": "FIG. 11F, DGBP 10 μM overnight, chrysotile 10 μg/cm^2 for 1 h", "experimental": "(§8) THP-1, MLE-12, and HLF-1 cell lines were obtained from American Type Culture Collection (Manassas, Va.). Cells were maintained in RPMI-1640, Hites, or F-12K media supplemented with fetal bovine serum and penicillin/streptomycin. All experiments were performed with media supplemented with 0.5% serum.\nas §1\n(§9) Mitochondria were isolated as previously described (He, C., et al., Mitochondrial Cu,Zn-Superoxide Dismutase Mediates Pulmonary Fibrosis by Augmenting H2O2 Generation. J Biol Chem, 2011. 286(17): p. 15597-607). […]"}, "[9]": {"test_system": "MLE-12 cells", "test": "Mitochondrial H2O2 generation in MLE-12 cells exposed to chrysotile (pHPA assay)", "type": "cell-based", "details": "FIG. 11G, DGBP 10 μM overnight, chrysotile 10 μg/cm^2 for 1 h", "experimental": "as §8, §1, §9"}, "[10]": {"test_system": "HLF-1 cells", "test": "Mitochondrial H2O2 generation in HLF-1 cells exposed to chrysotile (pHPA assay)", "type": "cell-based", "details": "FIG. 11H, DGBP 10 μM overnight, presence or absence of chrysotile", "experimental": "as §8, §1, §9"}, "[11]": {"test": "Apparent toxicity at the concentrations and doses used in the studies", "details": "in vitro or in vivo"}}}
{"substance": "digeranyl bisphosphonate [DGBP]", "values": [{"measurement": "H2O2 generation", "setting": "[1]; Example 1, FIG. 1, DGBP 10 mM, chrysotile asbestos 10 μg/cm^2", "result": "significant reduction in H2O2 to control levels"}, {"measurement": "H2O2 levels", "setting": "[1]; Example 2, FIG. 8F, DGBP 10 mM overnight, presence and absence of chrysotile 10 μg/cm^2, 90 min", "result": "decreased H2O2 to control levels"}, {"measurement": "mitochondrial H2O2 generation", "setting": "[2]", "result": "abrogated asbestos-induced mitochondrial H2O2 generation below control levels"}, {"measurement": "mitochondrial Rac1 import", "setting": "[3]; Example 1, FIG. 3A, chrysotile asbestos 10 μg/cm^2 for 1 h", "result": "inhibited mitochondrial Rac1 import in a dose-dependent manner"}, {"measurement": "localization of Rac1 to the mitochondria", "setting": "[3]; 1 mM DGBP overnight, chrysotile 10 μg/cm^2 for 90 min", "result": "Chrysotile induced localization of Rac1 to the mitochondria"}, {"measurement": "localization of Rac1 to the mitochondria", "setting": "[3]; 10 mM DGBP overnight, presence or absence of chrysotile", "result": "Rac1 was absent from the mitochondria"}, {"measurement": "geranylgeranylation (Rap1A immunoblot)", "setting": "[4]; Example 1, FIG. 3B, whole cell lysates", "result": "inhibition of geranylgeranylation"}, {"measurement": "Rap1A geranylgeranylation", "setting": "[4]; Example 2, FIG. 8E, 10 mM DGBP, isolated cytoplasm", "result": "impaired Rap1A geranylgeranylation"}, {"measurement": "lung oxidative stress (GSH assay)", "setting": "[5]; Example 1, FIG. 4, asbestos 100 μg i.t., after 21 days, vs vehicle", "result": "significant reduction in lung oxidative stress"}, {"measurement": "pulmonary fibrosis (hydroxyproline assay)", "setting": "[5]; Example 1, FIG. 5, chrysotile asbestos 100 μg i.t., 21 days, vs vehicle", "result": "significantly less pulmonary fibrosis"}, {"measurement": "oxidized GSH (% GSSG) in the lung, vehicle relative to DGBP", "setting": "[5]; FIG. 11B, chrysotile, 21 days", "result": 2.5, "unit": "fold"}, {"measurement": "lung histology (Masson's trichrome)", "setting": "[5]; FIG. 11D, chrysotile, after 21 days", "result": "essentially normal"}, {"measurement": "lung hydroxyproline", "setting": "[5]; FIG. 11E, chrysotile, after 21 days, water vs DGBP", "result": "confirmed by hydroxyproline assay"}, {"measurement": "pulmonary fibrosis (hydroxyproline assay)", "setting": "[6]; Example 1, FIG. 6, bleomycin 2.0 U/kg i.t., 21 days, vs vehicle", "result": "significantly less pulmonary fibrosis"}, {"measurement": "immunoreactive Rac1 in alveolar macrophage mitochondria", "setting": "[6]; FIG. 9B, DGBP 0.2 mg/kg/day, bleomycin 2.0 U/kg, BAL 21 days later", "result": "significant reduction in immunoreactive Rac1 in mitochondria"}, {"measurement": "non-geranylgeranylated Rap1A in BAL cells", "setting": "[6]; FIG. 9B, DGBP 0.2 mg/kg/day, immunoblot", "result": "non-geranylgeranylated Rap 1A was increased"}, {"measurement": "oxidized GSH (% GSSG) in lung, vehicle vs DGBP", "setting": "[6]; FIG. 9C, bleomycin, after 21 days", "result": "significantly higher oxidized GSH (% GSSG) than the lungs of mice that received DGBP"}, {"measurement": "active TGF-β in BAL fluid, vehicle relative to DGBP", "setting": "[6]; FIG. 9D, bleomycin, DGBP 0.2 mg/kg/day, ELISA", "result": "greater than 5 fold"}, {"measurement": "lung histology (Masson's trichrome)", "setting": "[6]; FIG. 9F, bleomycin", "result": "normal lung architecture"}, {"measurement": "lung hydroxyproline", "setting": "[6]; FIG. 9G, following bleomycin exposure, vs vehicle", "result": "significantly less hydroxyproline"}, {"measurement": "lung collagen deposition (Masson's trichrome)", "setting": "[7]; FIG. 10C, DGBP 0.2 mg/kg/day from seven days after bleomycin, 21 days after bleomycin", "result": "small patches of collagen deposition, but there was significantly less collagen compared to mice that received vehicle"}, {"measurement": "lung hydroxyproline content", "setting": "[7]; FIG. 10D, DGBP from seven days after bleomycin, vs vehicle", "result": "significantly less hydroxyproline"}, {"measurement": "mitochondrial H2O2 generation", "setting": "[8]", "result": "reduced chrysotile-induced H2O2 significantly at all time points"}, {"measurement": "mitochondrial H2O2 generation", "setting": "[9]", "result": "increased H2O2 generation in cells exposed to chrysotile"}, {"measurement": "mitochondrial H2O2 generation", "setting": "[10]", "result": "increased H2O2 in the presence or absence of chrysotile"}, {"measurement": "apparent toxicity", "setting": "[11]", "result": "not associated with apparent toxicity in vitro or in vivo"}]}
